Columns and labels:
Assay in all cases: relative viability (nuclei count vs DMSO), 5 days (fraction); higher = more cells survive
[1] = test system: NCI-H727
Procedure, shortened: (§1)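 Relative viability divides the nuclei count in treated wells by that in vehicle wells. Lung cancer cell lines were seeded in 1536-well plates, dosed by pin tool the next day, and fixed and stained after 5 days in one step with final 0.05% Triton X-100, 1% formaldehyde and 1 ug/ml Hoechst. Dosing was a single drug or a fixed anchor-drug dose plus five library-drug doses (not always all listed) in √10 steps, and values are medians of duplicate plates imaged at 4×.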

[2] = test system: HOP-62
Procedure, shortened: as §1

[3] = test system: NCI-H322M
Procedure, shortened: as §1

[4] = test system: EPLC-272H
Procedure, shortened: as §1

[5] = test system: NCI-H1993
Procedure, shortened: as §1

[6] = test system: LXF-289
Procedure, shortened: as §1

[7] = test system: H3255
Procedure, shortened: as §1

[8] = test system: NCI-H1563
Procedure, shortened: as §1

[9] = test system: NCI-H2347
Procedure, shortened: as §1

[10] = test system: NCI-H2023
Procedure, shortened: as §1

[11] = test system: PC-14
Procedure, shortened: as §1

[12] = test system: NCI-H1915
Procedure, shortened: as §1

[13] = test system: NCI-H2009
Procedure, shortened: as §1

[14] = test system: NCI-H2085
Procedure, shortened: as §1

[15] = test system: NCI-H2126
Procedure, shortened: as §1

[16] = test system: SK-LU-1
Procedure, shortened: as §1

[17] = test system: LCLC-97TM1
Procedure, shortened: as §1

[18] = test system: NCI-H661
Procedure, shortened: as §1

[19] = test system: NCI-H1650
Procedure, shortened: as §1

[20] = test system: EMC-BAC-2
Procedure, shortened: as §1

[21] = test system: SW 1573
Procedure, shortened: as §1

[22] = test system: NCI-H647
Procedure, shortened: as §1

Oc1nc(-c2ccc(C(F)(F)F)cc2)nc2c1CSCC2 [XAV939] + C[C@@H](Oc1cc(-c2cnn(C3CCNCC3)c2)cnc1N)c1c(Cl)ccc(F)c1Cl [Crizotinib] (partner 1 µM)
relative viability ([1]; first compound 0.08 µM): 0.812
relative viability ([1]; first compound 0.253 µM): 0.566
relative viability ([1]; first compound 0.8 µM): 0.722
relative viability ([1]; first compound 2.53 µM): 0.765
relative viability ([2]; first compound 0.08 µM): 0.972
relative viability ([2]; first compound 0.253 µM): 0.862
relative viability ([2]; first compound 0.8 µM): 0.906
relative viability ([2]; first compound 2.53 µM): 0.727
relative viability ([3]; first compound 0.08 µM): 1.03
relative viability ([3]; first compound 0.253 µM): 0.83
relative viability ([3]; first compound 0.8 µM): 0.911
relative viability ([3]; first compound 2.53 µM): 0.547
relative viability ([4]; first compound 0.08 µM): 0.956
relative viability ([4]; first compound 0.253 µM): 0.96
relative viability ([4]; first compound 0.8 µM): 0.995
relative viability ([4]; first compound 2.53 µM): 0.908
relative viability ([5]; first compound 0.8 µM): 0.85
relative viability ([5]; first compound 2.53 µM): 0.768
relative viability ([6]; first compound 0.08 µM): 0.833
relative viability ([6]; first compound 0.253 µM): 0.754
relative viability ([6]; first compound 0.8 µM): 0.829
relative viability ([6]; first compound 2.53 µM): 0.874
relative viability ([7]; first compound 0.08 µM): 0.942
relative viability ([7]; first compound 0.253 µM): 0.873
relative viability ([7]; first compound 0.8 µM): 0.725
relative viability ([7]; first compound 2.53 µM): 0.7
relative viability ([8]; first compound 0.08 µM): 0.834
relative viability ([8]; first compound 0.253 µM): 0.846
relative viability ([8]; first compound 0.8 µM): 0.789
relative viability ([8]; first compound 2.53 µM): 0.697
relative viability ([9]; first compound 0.08 µM): 0.692
relative viability ([9]; first compound 0.253 µM): 0.648
relative viability ([9]; first compound 0.8 µM): 0.75
relative viability ([9]; first compound 2.53 µM): 0.515
relative viability ([10]; first compound 0.08 µM): 0.598
relative viability ([10]; first compound 0.253 µM): 0.581
relative viability ([10]; first compound 0.8 µM): 0.468
relative viability ([10]; first compound 2.53 µM): 0.43
relative viability ([11]; first compound 0.08 µM): 0.97
relative viability ([11]; first compound 0.253 µM): 0.818
relative viability ([11]; first compound 0.8 µM): 0.834
relative viability ([11]; first compound 2.53 µM): 0.749
relative viability ([12]; first compound 0.08 µM): 0.949
relative viability ([12]; first compound 0.253 µM): 0.899
relative viability ([12]; first compound 0.8 µM): 0.891
relative viability ([12]; first compound 2.53 µM): 0.86
relative viability ([13]; first compound 0.08 µM): 1.12
relative viability ([13]; first compound 0.253 µM): 1.04
relative viability ([13]; first compound 0.8 µM): 1.01
relative viability ([13]; first compound 2.53 µM): 0.96
relative viability ([14]; first compound 0.08 µM): 0.961
relative viability ([14]; first compound 0.253 µM): 0.826
relative viability ([14]; first compound 0.8 µM): 0.917
relative viability ([14]; first compound 2.53 µM): 0.734
relative viability ([15]; first compound 0.08 µM): 1.12
relative viability ([15]; first compound 0.253 µM): 0.95
relative viability ([15]; first compound 0.8 µM): 0.938
relative viability ([15]; first compound 2.53 µM): 0.828
relative viability ([16]; first compound 0.08 µM): 0.929
relative viability ([16]; first compound 0.253 µM): 0.809
relative viability ([16]; first compound 0.8 µM): 0.936
relative viability ([16]; first compound 2.53 µM): 0.823
relative viability ([17]; first compound 0.08 µM): 0.488
relative viability ([17]; first compound 0.253 µM): 0.344
relative viability ([17]; first compound 0.8 µM): 0.361
relative viability ([17]; first compound 2.53 µM): 0.305
relative viability ([18]; first compound 0.08 µM): 0.922
relative viability ([18]; first compound 0.253 µM): 0.961
relative viability ([18]; first compound 0.8 µM): 0.953
relative viability ([18]; first compound 2.53 µM): 0.969
relative viability ([19]; first compound 0.08 µM): 1.1
relative viability ([19]; first compound 0.253 µM): 0.699
relative viability ([19]; first compound 0.8 µM): 0.948
relative viability ([19]; first compound 2.53 µM): 0.729
relative viability ([20]; first compound 0.08 µM): 0.821
relative viability ([20]; first compound 0.253 µM): 0.63
relative viability ([20]; first compound 0.8 µM): 0.623
relative viability ([20]; first compound 2.53 µM): 0.438
relative viability ([21]; first compound 0.08 µM): 0.948
relative viability ([21]; first compound 0.253 µM): 0.85
relative viability ([21]; first compound 0.8 µM): 0.757
relative viability ([21]; first compound 2.53 µM): 0.646
relative viability ([22]; first compound 0.08 µM): 1.07
relative viability ([22]; first compound 0.253 µM): 1
relative viability ([22]; first compound 0.8 µM): 1.11
relative viability ([22]; first compound 2.53 µM): 0.9

C=C1C(=O)O[C@@H](CCCCCCCC)[C@@H]1C(=O)O [C-75] + C[C@@H](Oc1cc(-c2cnn(C3CCNCC3)c2)cnc1N)c1c(Cl)ccc(F)c1Cl [Crizotinib] (partner 1 µM)
relative viability ([1]; first compound 0.08 µM): 0.825
relative viability ([1]; first compound 0.253 µM): 1.2
relative viability ([1]; first compound 0.8 µM): 0.772
relative viability ([1]; first compound 2.53 µM): 0.57
relative viability ([1]; first compound 8 µM): 1.11
relative viability ([2]; first compound 0.08 µM): 0.99
relative viability ([2]; first compound 0.253 µM): 0.849
relative viability ([2]; first compound 0.8 µM): 0.81
relative viability ([2]; first compound 2.53 µM): 0.824
relative viability ([2]; first compound 8 µM): 1
relative viability ([3]; first compound 0.08 µM): 0.977
relative viability ([3]; first compound 0.253 µM): 1.19
relative viability ([3]; first compound 0.8 µM): 0.919
relative viability ([3]; first compound 2.53 µM): 0.971
relative viability ([3]; first compound 8 µM): 0.973
relative viability ([4]; first compound 0.08 µM): 0.86
relative viability ([4]; first compound 0.253 µM): 0.994
relative viability ([4]; first compound 0.8 µM): 0.824
relative viability ([4]; first compound 2.53 µM): 0.672
relative viability ([4]; first compound 8 µM): 0.658
relative viability ([5]; first compound 0.08 µM): 0.862
relative viability ([5]; first compound 0.253 µM): 0.991
relative viability ([5]; first compound 0.8 µM): 0.891
relative viability ([5]; first compound 2.53 µM): 0.701
relative viability ([5]; first compound 8 µM): 0.986
relative viability ([6]; first compound 0.08 µM): 0.795
relative viability ([6]; first compound 0.253 µM): 0.793
relative viability ([6]; first compound 0.8 µM): 0.812
relative viability ([6]; first compound 2.53 µM): 0.739
relative viability ([6]; first compound 8 µM): 0.806
relative viability ([7]; first compound 0.08 µM): 0.909
relative viability ([7]; first compound 0.253 µM): 0.932
relative viability ([7]; first compound 0.8 µM): 0.875
relative viability ([7]; first compound 2.53 µM): 0.841
relative viability ([7]; first compound 8 µM): 0.843
relative viability ([8]; first compound 0.08 µM): 0.801
relative viability ([8]; first compound 0.253 µM): 0.909
relative viability ([8]; first compound 0.8 µM): 0.865
relative viability ([8]; first compound 2.53 µM): 0.826
relative viability ([8]; first compound 8 µM): 0.931
relative viability ([9]; first compound 0.08 µM): 0.735
relative viability ([9]; first compound 0.253 µM): 0.752
relative viability ([9]; first compound 0.8 µM): 0.63
relative viability ([9]; first compound 2.53 µM): 0.711
relative viability ([9]; first compound 8 µM): 0.648
relative viability ([10]; first compound 0.08 µM): 0.654
relative viability ([10]; first compound 0.253 µM): 0.767
relative viability ([10]; first compound 0.8 µM): 0.698
relative viability ([10]; first compound 2.53 µM): 0.444
relative viability ([10]; first compound 8 µM): 0.626
relative viability ([11]; first compound 0.08 µM): 0.836
relative viability ([11]; first compound 0.253 µM): 0.905
relative viability ([11]; first compound 0.8 µM): 0.893
relative viability ([11]; first compound 2.53 µM): 0.741
relative viability ([11]; first compound 8 µM): 0.998
relative viability ([12]; first compound 0.08 µM): 0.924
relative viability ([12]; first compound 0.253 µM): 0.914
relative viability ([12]; first compound 0.8 µM): 0.879
relative viability ([12]; first compound 2.53 µM): 0.819
relative viability ([12]; first compound 8 µM): 0.804
relative viability ([13]; first compound 0.08 µM): 1.04
relative viability ([13]; first compound 0.253 µM): 1.01
relative viability ([13]; first compound 0.8 µM): 0.987
relative viability ([13]; first compound 2.53 µM): 0.78
relative viability ([13]; first compound 8 µM): 0.968
relative viability ([14]; first compound 0.08 µM): 0.739
relative viability ([14]; first compound 0.253 µM): 0.803
relative viability ([14]; first compound 0.8 µM): 0.878
relative viability ([14]; first compound 2.53 µM): 0.656
relative viability ([14]; first compound 8 µM): 0.878
relative viability ([15]; first compound 0.08 µM): 1.04
relative viability ([15]; first compound 0.253 µM): 1.07
relative viability ([15]; first compound 0.8 µM): 1.01
relative viability ([15]; first compound 2.53 µM): 0.735
relative viability ([15]; first compound 8 µM): 0.972
relative viability ([16]; first compound 0.08 µM): 0.801
relative viability ([16]; first compound 0.253 µM): 0.987
relative viability ([16]; first compound 0.8 µM): 0.883
relative viability ([16]; first compound 2.53 µM): 0.907
relative viability ([16]; first compound 8 µM): 0.655
relative viability ([17]; first compound 0.08 µM): 0.274
relative viability ([17]; first compound 0.253 µM): 0.461
relative viability ([17]; first compound 0.8 µM): 0.328
relative viability ([17]; first compound 2.53 µM): 0.253
relative viability ([17]; first compound 8 µM): 0.29
relative viability ([18]; first compound 0.08 µM): 1.1
relative viability ([18]; first compound 0.253 µM): 1.02
relative viability ([18]; first compound 0.8 µM): 1.04
relative viability ([18]; first compound 2.53 µM): 0.933
relative viability ([18]; first compound 8 µM): 1.09
relative viability ([19]; first compound 0.08 µM): 0.961
relative viability ([19]; first compound 0.253 µM): 1.1
relative viability ([19]; first compound 0.8 µM): 0.972
relative viability ([19]; first compound 2.53 µM): 1.12
relative viability ([19]; first compound 8 µM): 1.21
relative viability ([20]; first compound 0.08 µM): 0.752
relative viability ([20]; first compound 0.253 µM): 0.731
relative viability ([20]; first compound 0.8 µM): 0.744
relative viability ([20]; first compound 2.53 µM): 0.692
relative viability ([20]; first compound 8 µM): 0.704
relative viability ([21]; first compound 0.08 µM): 0.812
relative viability ([21]; first compound 0.253 µM): 0.842
relative viability ([21]; first compound 0.8 µM): 0.768
relative viability ([21]; first compound 2.53 µM): 0.809
relative viability ([21]; first compound 8 µM): 0.754
relative viability ([22]; first compound 0.08 µM): 1.06
relative viability ([22]; first compound 0.253 µM): 1.05
relative viability ([22]; first compound 2.53 µM): 0.842
relative viability ([22]; first compound 8 µM): 0.603

Reference: the supplement of paper PMC10307832
